Our source for the TGI values is PubChem BioAssay (NCI).

Test systems include SF-295 CNS; TK-10 renal; HL-60(TB) leukemia; A549 NSCLC; NCI/ADR-RES ovarian; OVCAR-8 ovarian; SN12C renal; ACHN renal; SF-268 CNS; MALME-3M melanoma; MOLT-4 leukemia.
What all share (experiment): DTP human tumour cell line panel, 48 h

Structures are written as SMILES.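 Values below derive from 48-hour exposures of cells grown in 96-well plates, with endpoints linearly interpolated between the two concentrations bracketing the appropriate inhibition level. TGI marks complete inhibition of growth.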

One may read the TGI as the concentration giving total growth inhibition. Take `CN(C)Cc1cc(Cl)c(O)c(CN(C)C)c1`: the TGI in the test with SF-295 CNS, in the test on TK-10 renal, with HL-60(TB) leukemia, in the test on A549 NSCLC, in the test with NCI/ADR-RES ovarian and in the test on OVCAR-8 ovarian was over 100 µM throughout. Further, the TGI in the test on SN12C renal, in the test on ACHN renal, in the test on SF-268 CNS and in the test with MALME-3M melanoma was over 100 µM each time.

Consider `COc1ccc(CCN2CCN(CCCc3ccccc3)CC2)cc1`, for which the TGI in the test on SF-295 CNS, in the test with TK-10 renal, in the test with HL-60(TB) leukemia, in the test with A549 NSCLC, in the test on NCI/ADR-RES ovarian and in the test on MOLT-4 leukemia was over 100 µM in each case. The TGI with OVCAR-8 ovarian, with SN12C renal, with ACHN renal, in the test with SF-268 CNS and with MALME-3M melanoma was over 100 µM each time.

Consider `O=c1[nH]c(Nc2ccc(Br)c(C(F)(F)F)c2)nc2nc[nH]c12`, for which the TGI with SF-295 CNS is over 100 µM; in the test on TK-10 renal, over 100 µM; with HL-60(TB) leukemia, over 100 µM; in the test with A549 NSCLC it was over 100 µM; with NCI/ADR-RES ovarian, over 100 µM; in the test on MOLT-4 leukemia, 88.5 µM. Also, the TGI with OVCAR-8 ovarian, in the test on SN12C renal, in the test with ACHN renal, with SF-268 CNS and with MALME-3M melanoma was over 100 µM throughout.

On to `NS(=O)(=O)c1ccc(NC(=O)N/N=C/c2ccccc2[N+](=O)[O-])cc1`, for which the TGI with SF-295 CNS, in the test on TK-10 renal, in the test with HL-60(TB) leukemia, in the test with A549 NSCLC, in the test on NCI/ADR-RES ovarian and with MOLT-4 leukemia was over 100 µM each time. The TGI with OVCAR-8 ovarian, with SN12C renal, in the test with ACHN renal, in the test on SF-268 CNS and in the test on MALME-3M melanoma was over 100 µM throughout.

On to `O=C(OC1=CCN(Br)C1=O)C1=C(O)C(=O)N(Br)C1`, for which the TGI was 69.7 µM in the test with SF-295 CNS; over 100 µM in the test on TK-10 renal; 52.2 µM in the test with HL-60(TB) leukemia; over 100 µM in the test with A549 NSCLC; over 100 µM in the test on NCI/ADR-RES ovarian; 87.7 µM with MOLT-4 leukemia. The TGI in the test on OVCAR-8 ovarian was over 100 µM; with SN12C renal it was 31 µM; in the test on ACHN renal it was over 100 µM; in the test on SF-268 CNS it was 67.3 µM; with MALME-3M melanoma it was over 100 µM.

`C=C1C2CCC3C4(C)CCCC(C)(C(=O)O)C4CCC3(C2)C1OC(=O)/C(C)=C/C` (centres undefined): the TGI is 44.2 µM in the test with SF-295 CNS; over 100 µM with TK-10 renal; 56.7 µM in the test on HL-60(TB) leukemia; over 100 µM in the test on A549 NSCLC; 53.6 µM in the test on NCI/ADR-RES ovarian; over 100 µM in the test on OVCAR-8 ovarian. Further, the TGI in the test with SN12C renal was 62.6 µM; with ACHN renal, over 100 µM; in the test on SF-268 CNS, over 100 µM; in the test on MALME-3M melanoma it was over 100 µM.

As to `COc1ccc(C2CC(c3c(O)ccc4ccccc34)=NN2)cc1OC` (centres undefined), the total growth inhibition concentration (TGI) in the test on SF-295 CNS amounted to 17.6 µM; in the test with TK-10 renal it was 14.4 µM; in the test with HL-60(TB) leukemia, 63.5 µM; with NCI/ADR-RES ovarian, 9.77 µM; in the test on MOLT-4 leukemia it was 5.44 µM; in the test on OVCAR-8 ovarian, 17.8 µM. In addition, the TGI in the test on SN12C renal worked out at 32.2 µM; in the test on ACHN renal, 4.82 µM; in the test on SF-268 CNS, 11.5 µM; in the test on MALME-3M melanoma, 16.3 µM.

`CCCCCCN(CCCCCC)CCC(=O)c1ccc2cc(Br)c3ccccc3c2c1`: the TGI in the test on SF-295 CNS is over 100 µM; in the test on TK-10 renal it was 65.2 µM; with HL-60(TB) leukemia it was 56.2 µM; in the test with A549 NSCLC, over 100 µM; in the test on NCI/ADR-RES ovarian, over 100 µM; in the test on OVCAR-8 ovarian, over 100 µM. Besides, the TGI with SN12C renal, in the test on ACHN renal, in the test on SF-268 CNS and in the test on MALME-3M melanoma was over 100 µM each time.

On to `COC(=O)C1=C(C)NC(=O)N2[C@@H](CCOCc3ccccc3)CC[C@@H]12`, for which the TGI with SF-295 CNS, in the test on TK-10 renal, in the test with HL-60(TB) leukemia, in the test with A549 NSCLC, in the test with NCI/ADR-RES ovarian and in the test on MOLT-4 leukemia was over 50 µM in each case. Further, the TGI in the test with OVCAR-8 ovarian, in the test on ACHN renal, in the test with SF-268 CNS and in the test with MALME-3M melanoma was over 50 µM throughout.

`CC(C)(C)C1=C(Br)C(F)(C(C)(C)C)OP1(=O)c1ccccc1` (centres undefined): the TGI was found to be 37 µM in the test on SF-295 CNS; 33.1 µM in the test on TK-10 renal; 16.2 µM in the test with HL-60(TB) leukemia; 36.3 µM in the test on A549 NSCLC; 30.8 µM with NCI/ADR-RES ovarian; 36.4 µM with OVCAR-8 ovarian. The TGI with SN12C renal was 29.5 µM; in the test with ACHN renal, 30 µM; in the test with SF-268 CNS, 36.2 µM; in the test with MALME-3M melanoma, 32 µM.

Take `COc1ccc2[nH]cc(CCNC(=O)[C@H](Cc3ccc(O)cc3)NC(=O)[C@@H](NCC(F)(F)F)C(C)C)c2c1`: the TGI with SF-295 CNS, in the test with TK-10 renal, in the test with HL-60(TB) leukemia, in the test with A549 NSCLC, with NCI/ADR-RES ovarian and in the test with MOLT-4 leukemia was over 100 µM each time. Further, the TGI in the test with OVCAR-8 ovarian, with SN12C renal, in the test with ACHN renal and in the test on MALME-3M melanoma was over 100 µM in each case.

For `COC(=O)c1cc2c(c(C(=O)OC)c1)CCC2`, the TGI with SF-295 CNS, in the test on TK-10 renal, in the test on HL-60(TB) leukemia, with A549 NSCLC, with NCI/ADR-RES ovarian and in the test with MOLT-4 leukemia was over 100 µM each time. For the same compound, the concentration for total growth inhibition (TGI) in the test on OVCAR-8 ovarian, with ACHN renal, with SF-268 CNS and in the test on MALME-3M melanoma was over 100 µM in each case.

Regarding `Cn1c(-c2ccco2)ccc1-c1ccc(C=O)o1`, the TGI is over 100 µM in the test with SF-295 CNS; over 100 µM in the test on TK-10 renal; 52.2 µM with HL-60(TB) leukemia; over 100 µM in the test with A549 NSCLC; over 100 µM with NCI/ADR-RES ovarian; 74.6 µM with MOLT-4 leukemia. Moreover, the TGI in the test with OVCAR-8 ovarian, in the test on SN12C renal, in the test on ACHN renal and with MALME-3M melanoma was over 100 µM throughout.
